Laboratory results published in patent publication US11679108B2, “Aromatic heterocyclic compound, and pharmaceutical composition and use thereof” (GUANGZHOU HENOVCOM BIOSCIENCE CO., LTD., priority 2018, dated 2023).

Each compound was assayed against ATX (Homo sapiens, UniProt Q13822) (assay: Analysis in vitro: LPC was used as substrate for screening enzyme activity (Amplex Red fluorescence)). Conditions: inhibitory activity against ATX, with LPC as substrate.
Assay type: biochemical
Text: Analysis In Vitro: LPC was Used as Substrate for Screening Enzyme Activity
Principle: Lysophosphatidylcholine (LPC) as substrate is hydrolyzed by using the activity of lysoPLD enzyme, to produce lysophosphatidic acid (LPA) and choline, which is oxidized to produce H2O2 under the action of choline oxidase. In presence of horse radish peroxidase (HPR), Amplex Red reagent is reacted with H2O2 in a quantitative chemistry ratio of 1 to 1, to produce strong fluorescence products, which are detected by a fluorescent quantitative test.
Experimental procedures: the compounds to be tested were dissolved in DMSO, to prepare 10 mM of stock solution, which was diluted in a gradient concentration of 3 times with DMSO from 10 mM, to generate 10 concentration gradients. The reaction buffer solution was used for preparing a mixed solution 1 of 2 ng/μl ATX, 2 U/ml HRP and 0.2 U/ml choline oxidase in a final concentration. 20 μl of the above mixed solution 1 was added to each hole of an experiment board, […]. The compounds diluted with DMSO were transferred into an experiment board with Echo550. The reaction buffer solution was used for preparing a mixed solution 2 of […] LPC and 400 μM Amplex Red in a final concentration. 20 μl of the above mixed solution 2 was added to each hole of the experiment board. After addition, the experiment board was shook for 30 seconds on a shaker, and incubated for 30 minutes. Envision was used to read the fluorescence signals with an exciting light at 530 nm and emitted light at 590 nm. Inhibition ratio of the compounds to enzyme reaction was calculated according to the ratio of fluorescence, and IC50 of the compounds was analyzed and calculated by software, seeing Table 1.

Structure (SMILES) | IC50 [nM]
CCc1nc2sc(N3CC[C@@H](N(C)CC(=O)N4CC(C#N)C4)C3)nn2c1N(C)c1nc(-c2ccc(F)cc2)c(C#N)s1 [Example 46, (R)-2-{[2-(3-((2-(3-cyanoazetidin-1-yl)-2-oxoethyl)(methyl)amino)pyrrolidin-1-yl)-6-ethylimidazo[2,1-b][1,3,4]thiadiazol-5-yl](methyl)amino}-4-(4-fluorophenyl)thiazole-5-carbonitrile] | 100 to 500
CCc1nc2sc(N3CCN(CC(=O)N4CC(O)C4)[C@@H](C(=O)OC)C3)nn2c1N(C)c1nc(-c2ccc(F)cc2)c(C#N)s1 [Example 84, methyl (R)-4-{5-[(5-cyano-4-(4-fluorophenyl)thiazol-2-yl)(methyl)amino]-6-ethylimidazo[2,1-b][1,3,4]thiadiazol-2-yl}-1-(2-(3-hydroxyazetidin-1-yl)-2-oxoethyl)piperazine-2-carboxylate] | 100 to 500
CCc1nc2sc(N3CCN(CC(=O)N4CC(O)C4)[C@H](CO)C3)nn2c1N(C)c1nc(-c2ccc(F)cc2)c(C#N)s1 [Example 82, (S)-2-{[6-ethyl-2-(4-(2-(3-hydroxyazetidin-1-yl)-2-oxoethyl)-3-(hydroxymethyl)piperazin-1-yl)imidazo[2,1-b][1,3,4]thiadiazol-5-yl](methyl)amino}-4-(4-fluorophenyl)thiazole-5-carbonitrile] | 100 to 500
CCc1nc2sc(N3CC[C@@H](N(C)CC(=O)N4CC(C(=O)OC)C4)C3)nn2c1N(C)c1nc(-c2ccc(F)cc2)c(C#N)s1 [Example 42, methyl (R)-1-{2-[(1-(5-((5-cyano-4-(4-fluorophenyl)thiazol-2-yl)(methyl)amino)-6-ethylimidazo[2,1-b][1,3,4]thiadiazol-2-yl)pyrrolidin-3-yl)(methyl)amino]acetyl}azetidine-3-carboxylate] | 100 to 500
CCc1nc2sc(N3CC[C@@H](N(CC)CC(=O)N4CC(O)C4)C3)nn2c1N(C)c1nc(-c2ccc(F)cc2)c(C#N)s1 [Example 89, (R)-2-{[6-ethyl-2-(3-(ethyl(2-(3-hydroxyazetidin-1-yl)-2-oxoethyl)amino)pyrrolidin-1-yl)imidazo[2,1-b][1,3,4]thiadiazol-5-yl](methyl)amino}-4-(4-fluorophenyl)thiazole-5-carbonitrile] | 100 to 500
CCc1nc2sc(N3CCC(N(C)C(=O)N(C)C)C3)nn2c1N(C)c1nc(-c2ccc(F)cc2)c(C#N)s1 (centres unmarked) [Example 31, 1-{1-[5-((5-cyano-4-(4-fluorophenyl)thiazol-2-yl)(methyl)amino)-6-ethylimidazo[2,1-b][1,3,4]thiadiazol-2-yl]pyrrolidin-3-yl}-1,3,3-trimethylurea] | 100 to 500
CCc1nc2sc(N3CC[C@@H](N(CC(=O)N4CC(O)C4)CC4CC4)C3)nn2c1N(C)c1nc(-c2ccc(F)cc2)c(C#N)s1 [Example 90] | ≥ 1000
CCc1nc2sc(N3CC[C@@H](N(C)CC(=O)N4CC(C(=O)O)C4)C3)nn2c1N(C)c1nc(-c2ccc(F)cc2)c(C#N)s1 [Example 44, (R)-1-{2-[(1-(5-((5-cyano-4-(4-fluorophenyl)thiazol-2-yl)(methyl)amino)-6-ethylimidazo[2,1-b][1,3,4]thiadiazol-2-yl}pyrrolidin-3-yl)(methyl)amino]acetyl}azetidine-3-carboxylic acid] | 100 to 500
CCc1nc2sc(N3CCC(N(C)C(=O)N4CC(O)C4)C3)nn2c1N(C)c1nc(-c2ccc(F)cc2)c(C#N)s1 (centres unmarked) [Example 30, N-{1-[5-((5-cyano-4-(4-fluorophenyl)thiazol-2-yl)(methyl)amino)-6-ethylimidazo[2,1-b][1,3,4]thiadiazol-2-yl}pyrrolidin-3-yl}-3-hydroxy-N-methylazetidine-1-carboxamide] | 0.01 to 100

Other lines, results leading:

IC50 [nM] | Structure (SMILES)
500 to 1000 | CCc1nc2sc(N3CCN(CC(=O)N4CC(O)C4)[C@@H](CO)C3)nn2c1N(C)c1nc(-c2ccc(F)cc2)c(C#N)s1 [Example 85, (R)-2-{[6-ethyl-2-(4-(2-(3-hydroxyazetidin-1-yl)-2-oxoethyl)-3-(hydroxymethyl)piperazin-1-yl)imidazo[2,1-b][1,3,4]thiadiazol-5-yl](methyl)amino}-4-(4-fluorophenyl)thiazole-5-carbonitrile]
500 to 1000 | CCc1nc2sc(N3CCN(CC(=O)N4CC(O)C4)[C@H](C(=O)NC)C3)nn2c1N(C)c1nc(-c2ccc(F)cc2)c(C#N)s1 [Example 83, (S)-4-{5-[(5-cyano-4-(4-fluorophenyl)thiazol-2-yl)(methyl)amino]-6-ethylimidazo[2,1-b][1,3,4]thiadiazol-2-yl}-1-(2-(3-hydroxyazetidin-1-yl)-2-oxoethyl)-N-methylpiperazine-2-carboxamide]

Each compound was assayed against T1, ATX in human plasma (Homo sapiens, UniProt Q13822) (assay: Analysis in vitro: detection of LPA in human plasma for screening activity (LPA 18:2 by LC/MS/MS)). Conditions: incubated 2 hours at 37° C., LPA 18:2 detected by LC/MS/MS.
T1 construct: blank plasma was derived from at least 6 individual people; from tissue; host or cells: human plasma (pooled from at least 6 individuals)
Assay type: biochemical
Text: Analysis In Vitro: Detection of LPA in Human Plasma for Screening Activity
Principle: LPC in plasma being used as a substrate, the produced LPA 18:2 (LPA 17:0 as an internal standard) is detected by LC/MS/MS quantitative analysis. At different concentrations of the compounds to be tested, the percentage of residual activity is obtained by the ratio of the production of LPA18:2 to that in the absence of the compounds to be tested, thereby calculating IC50 values.
Experiment procedures: blank plasma was derived from at least 6 individual people. The compounds to be tested were diluted from stock solution in 3-fold dilution gradient, to produce 8 concentrations of working solution (with zero) in series. 10 μL of the melting blank plasma samples were taken and iced methanol solution containing internal standard (LPA 17:0) was added to it, so that the mixture directedly performed protein precipitation, which served as a system control sample. 2 μL of the working solution in different concentration was taken and 198 μL of blank human plasma was added, which was incubated with a concentration of 0 to 10 μM. The samples were placed at an incubater containing 5% CO2 at 37° C., and incubated for 2 hours. When the incubation was completed, 10 μL of plasma sample was taken and appropriate volume of iced methanol solution containing internal standard (LPA 17:0) was added into it, so that the mixture directedly performed protein precipitation. The precipitation was centrifuged to take supernatant. LPA 18:2 was detected by LC/MS/MS and IC50 values were analyzed and calculated by software, seeing Table 2.

Structure (SMILES) | IC50 [nM]
CCc1nc2sc(N3C[C@H](C)N(CC(=O)N4CC(O)C4)C[C@@H]3C)nn2c1N(C)c1nc(-c2ccc(F)cc2)c(C#N)s1 [Example 74, 2-{[6-ethyl-2-((2S,5S)-4-(2-(3-hydroxyazetidin-1-yl)-2-oxoethyl)-2,5-dimethylpiperazin-1-yl)imidazo[2,1-b][1,3,4]thiadiazol-5-yl](methyl)amino}-4-(4-fluorophenyl)thiazole-5-carbonitrile] | 0.01 to 100
CCc1nc2sc(N3CC4(CN(C(N)=O)C4)C3)nn2c1N(C)c1nc(-c2ccc(F)cc2)c(C#N)s1 [Example 9, 6-{5-[(5-cyano-4-(4-fluorophenyl)thiazol-2-yl)(methyl)amino]-6-ethylimidazo[2,1-b][1,3,4]thiadiazol-2-yl}-2,6-diazaspiro[3.3]heptane-2-carboxamide] | 500 to 1000

The next lines start with the values.

IC50 [nM] | Structure (SMILES)
0.01 to 100 | CCc1nc2sc(N3C[C@H](C)N(CC(=O)N4CC(O)C4)C[C@H]3C)nn2c1N(C)c1nc(-c2ccc(F)cc2)c(C#N)s1 (relative stereo) [Example 76, trans-2-{[6-ethyl-2-(4-(2-(3-hydroxyazetidin-1-yl)-2-oxoethyl)-2,5-dimethylpiperazin-1-yl)imidazo[2,1-b][1,3,4]thiadiazol-5-yl](methyl)amino}-4-(4-fluorophenyl)thiazole-5-carbonitrile]
100 to 500 | CCc1nc2sc(N3CCC4(CN(CC(=O)N5CC(C#N)C5)C4)C3)nn2c1N(C)c1nc(-c2ccc(F)cc2)c(C#N)s1 [Example 55, 2-{[6-ethyl-2-(2-(2-(3-cyanoazetidin-1-yl)-2-oxoethyl)-2,6-diazaspiro[3.4]octane-6-yl)imidazo[2,1-b][1,3,4]thiadiazol-5-yl](methyl)amino}-4-(4-fluorophenyl)thiazole-5-carbonitrile]
0.01 to 100 | CCc1nc2sc(N3CCC(NC(=O)N4CC(O)C4)C3)nn2c1N(C)c1nc(-c2ccc(F)cc2)c(C#N)s1 (centres unmarked) [Example 64, N-{1-[5-((5-cyano-4-(4-fluorophenyl)thiazol-2-yl)(methyl)amino)-6-ethylimidazo[2,1-b][1,3,4]thiadiazol-2-yl]pyrrolidin-3-yl}-3-hydroxyazadetin-1-carboxamide]
100 to 500 | CCc1nc2sc(N3C[C@@H](C)N(CC(=O)N4CC(O)C4)C[C@H]3C)nn2c1N(C)c1nc(-c2ccc(F)cc2)c(C#N)s1 [Example 75, 2-{[6-ethyl-2-((2R,5R)-4-(2-(3-hydroxyazetidin-1-yl)-2-oxoethyl)-2,5-dimethylpiperazin-1-yl)imidazo[2,1-b][1,3,4]thiadiazol-5-yl](methyl)amino}-4-(4-fluorophenyl)thiazole-5-carbonitrile]
